The values that follow come from patent publication US20220227773A1, “FUSED RING COMPOUND, PREPARATION METHOD THEREFOR AND USE THEREOF” (SHANGHAI INSTITUTE OF MATERIA MEDICA, CHINESE ACADEMY OF …, priority 2019, published 2022).

Assay [1] has as its system mice. As to the kind of experiment: Tail suspension test (TST) in mice. It counts as in vivo. The conditions noted are these: Mus musculus, ip. As for the experimental part: (§1) 3. In Vivo Drug Efficacy Test (Mouse Forced Swimming Model)
(§2) Experimental animals: C57BL/6 mice (Shanghai Xipuer-Bikai Experimental Animal Co., Ltd.), male, 6 weeks old, weighing 15-20 g. ICR mice (Shanghai Xipuer-Bikai Experimental Animal Co., Ltd.), male, 6 weeks old, weighing 20-25 g. All the ordered mice were fed in a standard environment for 2-3 weeks before test.
Tail suspension test (TST): the mice were tail fixed to the apparatus with a medical tape for 6 min, the whole process was recorded by the camera. When analyzing the data, only the immobility time of the mice in the last 4 min was counted.
(§3) The results were analyzed by one-way analysis of variance. […] FST: Forced swimming test; TST: Tail suspension test.

The target of assay [2] is T1, human recombinant 5-HT3 receptor (Homo sapiens, UniProt P46098).
T1 construct: expressed in transfected cells; host or cells: HEK293 (membrane preparation)
T1 sequence (P46098 24-478): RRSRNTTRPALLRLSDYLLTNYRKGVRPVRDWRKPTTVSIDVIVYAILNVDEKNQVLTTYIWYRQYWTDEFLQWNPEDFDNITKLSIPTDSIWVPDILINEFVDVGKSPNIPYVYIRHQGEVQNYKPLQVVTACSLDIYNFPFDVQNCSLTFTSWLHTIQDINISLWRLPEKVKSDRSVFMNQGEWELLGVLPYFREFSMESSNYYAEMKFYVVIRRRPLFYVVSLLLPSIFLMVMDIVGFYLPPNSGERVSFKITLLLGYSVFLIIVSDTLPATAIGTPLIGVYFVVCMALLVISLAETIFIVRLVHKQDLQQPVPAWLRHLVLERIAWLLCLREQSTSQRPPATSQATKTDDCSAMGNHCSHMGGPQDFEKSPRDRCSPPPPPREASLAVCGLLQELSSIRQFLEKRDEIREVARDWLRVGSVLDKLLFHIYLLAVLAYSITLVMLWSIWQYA
As to the kind of experiment: 5-HT3 receptor affinity assay (3H-BRL 43694 radioligand binding). To be noted: read-out: inhibition (%) at 1 μM.

Assay [3] concerns the target T2, hSERT (5-HTT) in HEK293-hSERT cells (Homo sapiens, UniProt P31645).
T2 construct: expressed in transfected cells; host or cells: HEK293
As to the kind of experiment: 5-HTT reuptake activity assay (fluorescence neurotransmitter transporter uptake kit). Type of assay: cell-based. The conditions noted are these: serotonin reuptake inhibition.

Assay [4] concerns mice. As to the kind of experiment: Forced swimming test (FST) in mice. To be noted: Mus musculus, read-out: Effective dose (mg/kg). It counts as in vivo. The protocol:
as §1, §2
Forced Swimming Test (FST): in the forced swimming apparatus, the water level is 45 cm, and the water temperature is 25° C. Before the experiment, the mice were placed in the experimental room for 1 h for adapting to the environment. At the beginning of the experiment, the mice were placed in the apparatus for 6min, and the whole process was recorded with a camera. When analyzing the data, only the immobility time of the mice in the last 4 min was counted, and the result was expressed by mean±SD.
as §3

[5] abbreviates: TST, dose significantly reducing immobility time of mice, read-out: Effective dose.
The mark [6] stands for this setting: read-out: Effective dose (mg/kg).
Where [7] appears, read: 1 μM compound, 0.5 nM 3H-BRL 43694, HEK293 membranes.

Counter-ions that a name gives are not always drawn. Like-named read-outs stand apart in the source and are kept apart here. Where only a bound is given, the exact number is not on record here.

T2 sequence (P31645 whole entry): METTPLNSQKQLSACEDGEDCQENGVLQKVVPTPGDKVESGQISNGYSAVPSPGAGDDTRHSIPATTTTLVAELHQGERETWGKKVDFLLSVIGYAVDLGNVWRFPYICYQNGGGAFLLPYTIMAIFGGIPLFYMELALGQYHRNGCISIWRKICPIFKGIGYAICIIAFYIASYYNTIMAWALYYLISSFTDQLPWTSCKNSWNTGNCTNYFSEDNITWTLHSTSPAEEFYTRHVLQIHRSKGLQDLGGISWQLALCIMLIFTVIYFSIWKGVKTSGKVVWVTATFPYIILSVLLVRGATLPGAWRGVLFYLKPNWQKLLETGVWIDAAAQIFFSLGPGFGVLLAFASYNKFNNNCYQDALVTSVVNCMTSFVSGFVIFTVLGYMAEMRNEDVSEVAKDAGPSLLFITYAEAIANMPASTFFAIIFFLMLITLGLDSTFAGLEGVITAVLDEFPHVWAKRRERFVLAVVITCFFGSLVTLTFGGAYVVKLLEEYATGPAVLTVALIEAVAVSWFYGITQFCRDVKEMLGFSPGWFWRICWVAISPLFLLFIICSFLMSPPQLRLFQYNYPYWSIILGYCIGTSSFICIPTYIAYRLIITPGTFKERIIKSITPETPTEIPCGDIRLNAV

In the case of `c1cc2cc(N3CCC4CNCC4CC3)ccc2s1` (stereo not drawn) [Example 7, 6-(Benzothiophen-5-yl)decahydropyrrolo[3,4-d]azepine maleate], the minimal effective dose in assay [1] (setting [5]) was determined as 10 mg/kg. Further, the inhibition (commonly the change of the read-out against control, counted positive when it falls) at 1 µM in assay [2] amounted to 101%. Also, the IC50 (in general, the point on the concentration scale where inhibition reaches its midpoint) in assay [3] was below 10 nM.
With `O=C(O)/C=C\C(=O)O.c1ccc2sc(N3CC4CNCC4C3)cc2c1` (stereo not drawn) [Example 22, 2-(Benzo[b]thiophen-2-yl)octahydropyrrolo[3,4-c]pyrrole maleate], the minimal effective dose in assay [1] (setting [6]) stood at 10 mg/kg. Also, the IC50 in assay [3] is below 50 nM.
In the case of `CCN1CC2CN(c3ccc4ccccc4c3)CC2C1.O=C(O)C(=O)O` (stereo not drawn) [Example 25, 2-ethyl-5-(naphthalen-2-yl)octahydropyrrolo[3,4-c]pyrrole oxalate], in assay [1] (setting [5]), the minimal effective dose is 10 mg/kg.
In the case of `CN1CC2CN(c3cccc(Cl)c3Cl)CC2C1.O=C(O)C(=O)O` (stereo not drawn) [Example 28, 2-(2,3-dichlorophenyl)-5-methyloctahydropyrrolo[3,4-c]pyrrole oxalate], the minimal effective dose in assay [1] (setting [6]) was 10 mg/kg. Besides, the inhibition at 1 µM in assay [2] was determined as 82%. The compound also returned an IC50 in assay [3] below 200 nM.
Take `O=C(O)/C=C\C(=O)O.c1cc(N2CCC3CNCC3CC2)c2sccc2c1` (stereo not drawn) [Example 36, 6-(Benzo[b]thiophen-7-yl)decahydropyrrolo[3,4-d]azepine maleate]: in assay [1] (setting [5]), the minimal effective dose worked out at 10 mg/kg. The inhibition at 1 µM in assay [2] turned out to be 89%. Besides, the IC50 in assay [3] is below 10 nM.
`Clc1cccc(N2CCC3CNCC3CC2)c1Cl.O=C(O)/C=C\C(=O)O` (stereo not drawn) [Example 37, 6-(2,3-dichlorophenyl)decahydropyrrolo[3,4-d]azepine maleate]: the minimal effective dose in assay [4] (ip) was 10 mg/kg. Also, the inhibition at 1 µM in assay [2] turned out to be 80%. This compound also came in with an IC50 in assay [3] below 10 nM.
`O=C(O)/C=C\C(=O)O.c1cc(N2CCC3CNCC3CC2)c2ccsc2c1` (stereo not drawn) [Example 38, 6-(Benzo[b]thiophen-4-yl)decahydropyrrolo[3,4-d]azepine maleate]: the minimal effective dose in assay [1] (setting [5]) was found to be 10 mg/kg. For the same compound, the inhibition at 1 µM in assay [2] worked out at 103%. In assay [3], this compound displayed an IC50 below 10 nM.
Take `O=C(O)/C=C\C(=O)O.c1ccc2cc(N3CCC4CNCC4CC3)ccc2c1` (stereo not drawn) [Example 39, 6-(naphthalen-2-yl)decahydropyrrolo[3,4-d]azepine maleate]: the minimal effective dose in assay [1] (setting [5]) was 10 mg/kg. Further, the inhibition at 1 µM in assay [2] amounted to 92%. Further, the IC50 in assay [3] was below 10 nM.
Consider `O=C(O)/C=C\C(=O)O.c1cc(N2CC3CCNCCC3C2)c2ccsc2c1` (stereo not drawn) [Example 41, 2-(Benzo[b]thiophen-4-yl)decahydropyrrolo[3,4-d]azepine maleate], for which, in assay [1] (setting [5]), the minimal effective dose is 10 mg/kg. Further, the inhibition at 1 µM in assay [2] was 86%. Also, the IC50 in assay [3] was below 10 nM.
For the compound `Cl.c1ccc2sc(C3CC4CNCC4C3)cc2c1` (stereo not drawn) [Example 50, 5-(benzothiophen-2-yl)octahydrocyclopenta[c]pyrrole hydrochloride], the minimal effective dose in assay [4] (ip) worked out at 10 mg/kg. For the same compound, the inhibition at 1 µM in assay [2] (setting [7]) amounted to 83%. Besides, the IC50 in assay [3] is below 200 nM.
In the case of `Cl.c1ccc2cc(C3CC4CNCC4C3)ccc2c1` (stereo not drawn) [Example 55, 5-(naphthalen-2-yl)octahydrocyclopenta[c]pyrrole hydrochloride], the minimal effective dose in assay [4] (po) is 5 mg/kg. The inhibition at 1 µM in assay [2] (setting [7]) came out at 75%. For the same compound, the IC50 in assay [3] was below 10 nM.
